Experimental data reported in patent publication US20180148418A1, “AMIDO-SUBSTITUTED CYCLOHEXANE DERIVATIVES” (Bayer Pharma Aktiengesellschaft, priority 2015, published 2018).

Columns and labels:
TNKS2 = biological target: T1, TNKS2 (Homo sapiens, UniProt Q9H2K2); assay: TNKS2 Assay B (auto-parsylation, [3H]-NAD+ SPA); format: biochemical; settings: 6 nM TNKS2, auto-parsylation, over night at room temperature
T1 construct: purchased BPS Bioscience, San Diego, USA 80572 (TNKS2 Histone Ribosylation Assay Kit)
T1 sequence (Q9H2K2 1-1166): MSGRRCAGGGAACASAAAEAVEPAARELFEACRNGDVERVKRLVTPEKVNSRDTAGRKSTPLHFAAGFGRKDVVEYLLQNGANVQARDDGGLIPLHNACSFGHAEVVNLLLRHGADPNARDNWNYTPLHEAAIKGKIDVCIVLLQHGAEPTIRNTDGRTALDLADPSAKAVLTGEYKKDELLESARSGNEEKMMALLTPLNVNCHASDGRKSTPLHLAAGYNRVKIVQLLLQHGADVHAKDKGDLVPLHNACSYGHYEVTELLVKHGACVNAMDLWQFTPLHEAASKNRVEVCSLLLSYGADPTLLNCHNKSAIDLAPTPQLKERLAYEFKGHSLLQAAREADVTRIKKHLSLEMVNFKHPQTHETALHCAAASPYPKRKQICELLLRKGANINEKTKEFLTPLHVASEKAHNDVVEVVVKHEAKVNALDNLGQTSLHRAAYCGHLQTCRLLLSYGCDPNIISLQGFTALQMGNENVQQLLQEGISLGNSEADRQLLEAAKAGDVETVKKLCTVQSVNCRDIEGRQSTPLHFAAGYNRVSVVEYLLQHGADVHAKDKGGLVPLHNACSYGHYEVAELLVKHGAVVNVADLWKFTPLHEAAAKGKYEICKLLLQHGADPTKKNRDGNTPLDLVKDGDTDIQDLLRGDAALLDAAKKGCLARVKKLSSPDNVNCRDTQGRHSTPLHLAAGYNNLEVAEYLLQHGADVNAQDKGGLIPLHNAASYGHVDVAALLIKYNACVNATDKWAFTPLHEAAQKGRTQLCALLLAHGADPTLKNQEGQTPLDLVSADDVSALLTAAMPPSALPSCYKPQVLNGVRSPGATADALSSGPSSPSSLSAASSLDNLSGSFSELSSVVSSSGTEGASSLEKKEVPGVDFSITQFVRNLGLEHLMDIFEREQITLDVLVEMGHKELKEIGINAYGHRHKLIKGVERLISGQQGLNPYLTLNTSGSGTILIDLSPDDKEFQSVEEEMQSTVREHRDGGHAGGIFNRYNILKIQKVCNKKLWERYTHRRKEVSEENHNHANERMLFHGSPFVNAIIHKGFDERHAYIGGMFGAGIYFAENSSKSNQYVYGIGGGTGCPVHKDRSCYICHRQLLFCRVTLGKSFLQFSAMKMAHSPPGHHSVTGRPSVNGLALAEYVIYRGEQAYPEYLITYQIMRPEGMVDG
Experimental: The potency of selected compounds according to the invention was assessed applying a modified in vitro inhibition assay. Here, the TNKS2 catalyzed NAD^+-dependent ribosylation of the enzyme itself (auto-parsylation) was detected using [^3H]-NAD^+ as substrate and applying the scintillation proximity assay (SPA) method to detect tritium-labeled, parsylated TNKS2. The intensity of the readout signal is proportional to the incorporated [^3H]-NAD^+. Inhibition of TNKS2 leads to a decreased incorporation of [^3H]-NAD^+ and consequently to a lower readout signal intensity. The concentration of a test compound which inhibits the enzyme activity by 50% (corresponds to half of the normed readout signal intensity) is reported as IC50.
Protocol Auto-Parsylation Assay
The assay was conducted in a 96 well MTP format with the identical TNKS2 enzyme sample and NAD^+ sample as in the histone ribosylation assay with the following modifications: TNKS2 enzyme sample was diluted with a modified assay buffer (50 mM MES pH 7.0, 1 mM DTT, 0.01% Triton X-100) to a final concentration of 6 nM TNKS2 and 10×NAD^+ solution was diluted with the modified assay buffer (s. above) to a final 0.445×NAD^+ solution doped with 100 Bq/μl [^3H]-NAD^+[Catalog #NET443H050UC, Perkin Elmer, Waltham, Mass., USA]. Substrate solution (10 μl) was incubated with different test compound concentrations (2.5 μl in 10% DMSO in modified assay buffer) or control (2.5 μl 10% DMSO in modified assay buffer only) and enzyme (10 μl) over night at room temperature. Incorporated tritium was measured after addition of 50 ul SPA beads (1 mg/ml) [Catalog #RPNQ0095 20 mg/ml, Perkin Elmer, Waltham, Mass., USA; diluted 1:10 with Dulbecco's phosphate buffered saline, PBS Catalog #D8537, Sigma-Aldrich, Steinheim, Germany] and detection of the photon emission with a beta count plate reader [Wallac MicroBeta®, Perkin Elmer, Waltham, Mass., USA].

[1] = tested on: wildtype Wnt signaling cascade; assay: HEK293 TOP assay (Super TopFlash luciferase reporter, Wnt-3a stimulated); format: cell-based; settings: Homo sapiens, HEK293, 16 h, HEK293 TOP reporter cells, Wnt3a at EC50, 16 hours
Method in brief: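 HEK293 cells stably carrying Super TopFlash (TOP) run in parallel with FOP cells, 10000/well plated 24 h ahead, stimulated with recombinant human Wnt-3a. Compounds tested 50 μM to 15 nM in 3.16-fold steps in CAFTY buffer pH 7.4 with 2 mM Ca^2+ and 0.01% BSA; luciferase read-out.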

[2] = tested on: HEK293 cells cotransfected with the FOP control vector; assay: HEK293 FOP assay (control reporter with non-functional TCF elements); format: cell-based; settings: Homo sapiens, 16 hours
Method in brief: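 Stable HEK293 line carrying FOP control reporter (randomized non-functional TCF sites, with pcDNA3), Geneticin-selected, plated 24 h before assay. Stimulated with recombinant human Wnt-3a (2500-5 ng/ml) and compounds 50 μM–15 nM (3.16-fold steps) in CAFTY buffer pH 7.4 with 2 mM Ca2+, 0.01% BSA, run parallel to TOP line.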

Row | Compound | IC50 (TNKS2) [µM] | IC50 [1] [nM] | IC50 [2] [µM]
1 | O=C(N[C@H]1CC[C@@]2(CCN(c3ccccc3)C2=O)CC1)c1cnc2cccnn12 [Example 240, N-[(trans)-1-oxo-2-phenyl-2-azaspiro[4.5]dec-8-yl]imidazo[1,2-b]pyridazine-3-carboxamide] | 0.51 | 29 | ≥ 0.5
2 | COCc1cc(C)nc2c(C(=O)N[C@H]3CC[C@@]4(CCN(c5c(F)cc(F)cc5Cl)C4=O)CC3)cnn12 [Example 241, N-[(trans)-2-(2-chloro-4,6-difluorophenyl)-1-oxo-2-azaspiro[4.5]dec-8-yl]-7-(methoxymethyl)-5-methylpyrazolo[1,5-a]pyrimidine-3-carboxamide] | 0.019 | 0.99 | 8.1
3 | COCc1cc(C)n2ncc(C(=O)N[C@H]3CC[C@@]4(CCN(c5c(F)cc(F)cc5Cl)C4=O)CC3)c2n1 [Example 242, N-[(trans)-2-(2-chloro-4,6-difluorophenyl)-1-oxo-2-azaspiro[4.5]dec-8-yl]-5-(methoxymethyl)-7-methylpyrazolo[1,5-a]pyrimidine-3-carboxamide] | 0.021 | 7.1 | ≥ 50
4 | O=C(N[C@H]1CC[C@@]2(CCN(c3c(F)cc(F)cc3Cl)C2=O)CC1)c1cnc2cccnn12 [Example 243, N-[(trans)-2-(2-chloro-4,6-difluorophenyl)-1-oxo-2-azaspiro[4.5]dec-8-yl]imidazo[1,2-b]pyridazine-3-carboxamide] | 0.011 | 1.5 | ≥ 50
5 | O=C(N[C@H]1CC[C@@]2(CCN(c3c(F)cc(F)cc3Cl)C2=O)CC1)c1cnn2cccnc12 [Example 244, N-[(trans)-2-(2-chloro-4,6-difluorophenyl)-1-oxo-2-azaspiro[4.5]dec-8-yl]pyrazolo[1,5-a]pyrimidine-3-carboxamide] | 0.0064 | 3.7 | ≥ 0.5
6 | O=C(N[C@H]1CC[C@@]2(CCN(c3cc(F)cc(F)c3)C2=O)CC1)c1cnn2cccnc12 [Example 245, N-[(trans)-2-(3,5-difluorophenyl)-1-oxo-2-azaspiro[4.5]dec-8-yl]pyrazolo[1,5-a]pyrimidine-3-carboxamide] | 0.72 | 100 | ≥ 50
7 | O=C(N[C@H]1CC[C@@]2(CCN(c3cnccc3Cl)C2=O)CC1)c1cnn2cccnc12 [Example 246, N-[(trans)-2-(4-chloropyridin-3-yl)-1-oxo-2-azaspiro[4.5]dec-8-yl]pyrazolo[1,5-a]pyrimidine-3-carboxamide] | 0.0059 | 0.15 | ≥ 50
8 | Cn1nc(C(=O)N[C@H]2CC[C@@]3(CCN(c4ccc(F)cc4Cl)C3=O)CC2)c2ccccc21 [Example 247, N-[(trans)-2-(2-chloro-4-fluorophenyl)-1-oxo-2-azaspiro[4.5]dec-8-yl]-1-methyl-1H-indazole-3-carboxamide] | 6 | 490 | 13
9 | O=C(N[C@H]1CC[C@@]2(CCN(c3ccc(F)cc3Cl)C2=O)CC1)c1n[nH]c2cccc(I)c12 [Example 248, N-[(trans)-2-(2-chloro-4-fluorophenyl)-1-oxo-2-azaspiro[4.5]dec-8-yl]-4-iodo-1H-indazole-3-carboxamide] | > 10 | 5100 | ≥ 50
10 | Cn1nc(C(=O)N[C@H]2CC[C@H](C(=O)Nc3ccc(F)cc3Cl)CC2)c2ccccc21 [Example 249, N-{trans-4-[(2-chloro-4-fluorophenyl)carbamoyl]cyclohexyl}-1-methyl-1H-indazole-3-carboxamide] | > 10 | 14000 | ≥ 50
11 | Cn1nc2ccccc2c1C(=O)N[C@H]1CC[C@H](C(=O)Nc2ccc(F)cc2Cl)CC1 [Example 250, N-{trans-4-[(2-chloro-4-fluorophenyl)carbamoyl]cyclohexyl}-2-methyl-2H-indazole-3-carboxamide] | > 10 | ≥ 50000 | ≥ 50
12 | O=C(N[C@H]1CC[C@@]2(CCN(c3ccc(F)cc3Cl)C2=O)CC1)c1n[nH]c2ccccc12 [Example 251, N-[trans-2-(2-chloro-4-fluorophenyl)-1-oxo-2-azaspiro[4.5]dec-8-yl]-1H-indazole-3-carboxamide] | > 10 | 2500 | ≥ 50
13 | O=C(N[C@H]1CC[C@H](C(=O)Nc2ccc(F)cc2Cl)CC1)c1c[nH]c2ccccc12 [Example 252, N-{trans-4-[(2-chloro-4-fluorophenyl)carbamoyl]cyclohexyl}-1H-indole-3-carboxamide] | > 10 | ≥ 50000 | ≥ 50
14 | O=C(N[C@H]1CC[C@H](C(=O)Nc2ccc(F)cc2Cl)CC1)c1n[nH]c2ccccc12 [Example 253, N-{trans-4-[(2-chloro-4-fluorophenyl)carbamoyl]cyclohexyl}-1H-indazole-3-carboxamide] | > 10 | 20000 | 19
15 | O=C(N[C@H]1CC[C@H](C(=O)Nc2ccc(F)cc2Cl)CC1)c1n[nH]c2ccc(F)cc12 [Example 254, N-{trans-4-[(2-chloro-4-fluorophenyl)carbamoyl]cyclohexyl}-5-fluoro-1H-indazole-3-carboxamide] | > 10 | 10000 | ≥ 50
16 | O=C(N[C@H]1CC[C@H](C(=O)Nc2ccc(F)cc2Cl)CC1)c1c(Cl)nc2ccccn12 [Example 255, 2-chloro-N-{trans-4-[(2-chloro-4-fluorophenyl)carbamoyl]cyclohexyl}imidazo[1,2-a]pyridine-3-carboxamide] | > 10 | ≥ 50000 | ≥ 50
17 | NC(=O)c1nc[nH]c1C(=O)N[C@H]1CC[C@@]2(CCN(c3ccccc3Cl)C2=O)CC1 [Example 261, N^5-[(trans)-2-(2-chlorophenyl)-1-oxo-2-azaspiro[4.5]dec-8-yl]-1H-imidazole-4,5-dicarboxamide] | 0.017 | 4.6 | ≥ 50
18 | O=C(N[C@H]1CC[C@@]2(CCN(c3ccccc3Cl)C2=O)CC1)c1[nH]cnc1C(=O)N1CC(F)C1 [Example 262, N-[(trans)-2-(2-chlorophenyl)-1-oxo-2-azaspiro[4.5]dec-8-yl]-4-[(3-fluoroazetidin-1-yl)carbonyl]-1H-imidazole-5-carboxamide] | 0.007 | 0.08 | ≥ 50
